Literature values, collected in US8865644B2, “Rapamycin formulation using recombinant high-density lipoprotein including apolipoprotein A-I and a mutant thereof” (Industry-Academic Cooperation Foundation, Yeungnam …, priority 2010, dated 2014).

solubility in water, aliphatic hydrocarbon and diethylether: hardly dissolved
Compound: CO[C@H]1C[C@@H]2CC[C@@H](C)[C@@](O)(O2)C(=O)C(=O)N2CCCC[C@H]2C(=O)O[C@H]([C@H](C)C[C@@H]2CC[C@@H](O)[C@H](OC)C2)CC(=O)[C@H](C)/C=C(\C)[C@@H](O)[C@@H](OC)C(=O)[C@H](C)C[C@H](C)/C=C/C=C/C=C/1C [rapamycin]
